Results published in patent US7855214B2, “Fused cyclic systems useful as inhibitors of TEC family protein kinases” (Vertex Pharmaceuticals Incorporated, priority 2004, dated 2010).

Molecular target: T1, Itk (Homo sapiens, UniProt Q08881)
T1 sequence (Q08881 1-620): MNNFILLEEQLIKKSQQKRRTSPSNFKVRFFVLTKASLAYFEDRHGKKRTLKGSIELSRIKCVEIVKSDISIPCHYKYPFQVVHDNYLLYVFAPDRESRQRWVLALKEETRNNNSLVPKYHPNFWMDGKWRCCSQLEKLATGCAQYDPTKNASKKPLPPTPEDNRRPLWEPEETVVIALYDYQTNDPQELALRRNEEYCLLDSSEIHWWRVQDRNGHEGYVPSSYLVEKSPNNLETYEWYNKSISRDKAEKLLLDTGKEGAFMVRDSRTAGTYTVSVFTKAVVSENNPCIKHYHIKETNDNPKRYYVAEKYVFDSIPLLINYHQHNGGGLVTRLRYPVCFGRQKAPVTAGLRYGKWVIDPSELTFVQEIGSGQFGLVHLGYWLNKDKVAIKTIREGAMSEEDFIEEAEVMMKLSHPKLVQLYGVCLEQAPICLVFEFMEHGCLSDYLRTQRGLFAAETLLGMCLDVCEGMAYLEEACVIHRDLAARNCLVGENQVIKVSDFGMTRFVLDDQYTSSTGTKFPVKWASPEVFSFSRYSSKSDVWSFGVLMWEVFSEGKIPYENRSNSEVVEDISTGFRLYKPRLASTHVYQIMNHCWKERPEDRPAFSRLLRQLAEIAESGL
Assay: ITK Inhibition Assay (AlphaScreen)
Assay type: biochemical
Conditions: Ki(app); 100 μM ATP, 2 μM biotinylated SAM68 peptide, 30 nM Itk, 25° C.
Description: Compounds were screened for their ability to inhibit Itk using an AlphaScreen™ phosphotyrosine assay at Vertex Pharmaceuticals. Assays were carried out in a mixture of 20 mM MOPS (pH 7.0), 10 mM MgCl2, 0.1% BSA and 1 mM DTT. Final substrate concentrations in the assay were 100 μM ATP (Sigma Chemicals) and 2 μM peptide (Biotinylated SAM68 Δ332-443). Assays were carried out at 25° C. and in the presence of Itk (30 nM). An assay stock buffer solution was prepared containing all of the reagents listed above, with the exception of ATP and the test compound of interest. 25 μL of the stock solution was placed in each well of a 96 well plate followed by 1 μL of DMSO containing serial dilutions of the test compound (typically starting from a final concentration of 15 μM) in duplicate (final DMSO concentration 2%). The plate was preincubated for 10 minutes at 25° C. and the reaction initiated by addition of 25 μL ATP (final concentration 100 μM). Background counts were determined by the addition of 5 μL 500 mM EDTA to control wells containing assay stock buffer and DMSO prior to initiation with ATP.
The reaction was stopped after 30 minutes by diluting the reaction 225-fold into MOPS buffer (20 mM MOPS (pH 7.0), 1 mM DTT, 10 mM MgCl2, 0.1% BSA) containing 50 mM EDTA to bring the final concentration of Biotin-SAM68 to 9 nM.
AlphaScreen™ reagents were prepared according to the manufacturers instructions (AlphaScreen™ phosphotyrosine (P-Tyr-100) assay kit, PerkinElmer catalogue number 6760620C). Under subdued lighting, 20 μL of AlphaScreen™ reagents were placed in each well of a white half area 96 well plate (Corning Inc.—COSTAR 3693) with 30 μL of the stopped, diluted kinase reactions. Plates were incubated in the dark for 60 minutes prior to reading on a Fusion Alpha plate reader (PerkinElmer).
After removing mean background values for all of the data points, Ki(app) data were calculated from non-linear regression analysis using the Prism software package (GraphPad Prism version 3.0cx for Macintosh, GraphPad Software, San Diego Calif., USA).

Compound | Ki [nM]
Nc1ccc2c(=O)n3c(nc(Nc4cc(C5CC5)[nH]n4)c4ccccc43)nc2c1 [Compound I-1] | < 1000
O=c1c2ccccc2nc2nc(Nc3cc(C4CCCC4)n[nH]3)c3ccccc3n12 [Compound I-9] | < 1000
COc1cc2nc3nc(Nc4cc(C(C)C)n[nH]4)c4ccccc4n3c(=O)c2cc1OC [Compound I-14] | < 1000
COc1cc2nc3nc(Nc4cc(C5CCCC5)n[nH]4)c4ccccc4n3c(=O)c2cc1OC [Compound I-11] | < 1000
O=c1c2ccccc2nc2nc(Nc3cc(C4CC4)n[nH]3)c3c(n12)CCC3 [Compound I-15] | < 1000
Cc1cc(Nc2nc3nc4cc(N)ccc4c(=O)n3c3ccccc23)[nH]n1 [Compound I-3] | < 1000
O=c1c2ccccc2nc2nc(Nc3cc(C4CC4)n[nH]3)c3c(n12)CCCC3 [Compound I-17] | < 1000
COc1cc2nc3nc(Nc4cc(C5CC5)n[nH]4)c4ccccc4n3c(=O)c2cc1OC [Compound I-10] | < 1000
CCOC(=O)Nc1ccc2c(=O)n3c(nc(Nc4cc(C5CC5)n[nH]4)c4ccccc43)nc2c1 [Compound I-16] | < 1000
O=c1c2ccccc2nc2nc(Nc3cc(C4CC4)n[nH]3)c3ccccc3n12 [Compound I-2] | < 1000

Further lines, results first:

Ki [nM] | Compound
< 1000 | O=c1c2ccccc2nc2nc(Nc3cc(CCCO)[nH]n3)c3ccccc3n12 [Compound I-20]
< 1000 | CC(C)c1cc(Nc2nc3nc4ccccc4c(=O)n3c3ccccc23)[nH]n1 [Compound I-7]
< 1000 | CCCc1cc(Nc2nc3nc4ccccc4c(=O)n3c3ccccc23)n[nH]1 [Compound I-13]
< 1000 | COCCCc1cc(Nc2nc3nc4ccccc4c(=O)n3c3ccccc23)n[nH]1 [Compound I-21]
